Values joined by “and” are separate entries in the source; they are usually repeats but may differ in a detail not shown here. Equal values may be shown once.
Columns and labels:
normal sera = assay: ELISA of peptides on normal sera (specificity); assay type: binding, human; conditions: peptide 10 μg/ml, duplicate
Protocol: (§1) Detection of anti-HCV Antibodies by ELISA
(§2) The wells of a microtiter plate of "NUNC MAXISORB™" trademark are saturated with 100 μl of a solution containing the peptide or a mixture of peptides (10 μg/ml) for 2 hours at 37° C. The plate is then emptied, then washed with a wash buffer containing 0.05% TWEEN™ 20(polysorbate 20). The wells are saturated with 100 μl of wash buffer supplemented with 10% goat serum (v/v), then incubated for 30 minutes at 37° C., then washed again as above. The sera to be analyzed are diluted to the appropriate dilution with saturation buffer. The incubation of the sera is 1 hour at 37° C. The wells are again washed. The solution of conjugate (goat IgG to human IgG labelled with peroxidase) at a dilution of 1/1000 in the saturation buffer is then added and the incubation lasts for 90 minutes at 37° C. After washing, the solution of orthophenylenediamine substrate is added. After 10 minutes, the reaction is stopped with 50 μl of H2 SO4 and the optical density is read at 492 nm. It should be noted that all the tests were carried out in duplicate.
(§3) For that, the different peptides are adsorbed on the microplates at a concentration of 10 μg/ml and the sera are used at 1/100 dilution.
(§4) The values obtained, which are collated in Table 1 below, correspond to the optical density (OD) multiplied by 10^3, at 492 nm.
(§5) For each serum the experiment was carried out in duplicate. The **** are values outside the upper scale.

[1] = tested on: anti-HCV antibodies (HCV-positive sera); assay: ELISA detection of anti-HCV antibodies in HCV-positive sera with adsorbed peptides; assay type: binding, human; conditions: for optical density at 492 nm: peptide 10 μg/ml, duplicate
Protocol: The reactivity of these three peptides towards the sera of individuals infected with the hepatitis C virus, termed (HCV) positive, was evaluated in an ELISA test according to the procedure described below.
as §1, §2, §3, §4, §5
The different peptides are absorbed onto microplates at a concentration of 10 μg/ml and the sera are used at the dilution stated.
The values obtained, which are collated in Table 2 below, correspond to the optical density at 492 nm. All the experiments were carried out in duplicate.
Each serum was, in a first instance, tested at the dilution 1/100.
The values given correspond to the optical density read at 492 nm multiplied by the factor 10^3.

HCV-positive sera = conditions: Nasoff et al., recombinant fusion proteins; cited from earlier work

With “R40R: peptide extending from arginine 74 up to arginine 115 of the HCV CORE protein (RTWAQPGYPWPLYGNEGCGWAGWLLSPRGSRPSWGPTDPRRR)” the “optical density at 492 nm” value (normal sera; normal serum SN 10, 1/100) was 163 OD × 10^3 and 154 OD × 10^3, the “optical density at 492 nm” value (normal sera; normal serum SN 11, 1/100) was 150 OD × 10^3 and 138 OD × 10^3 and the “optical density at 492 nm” value (normal sera; normal serum SN 16, 1/100) was 426 OD × 10^3 and 439 OD × 10^3. The “optical density at 492 nm” value (normal sera; normal serum SN 17, 1/100) was 104 OD × 10^3 and 74 OD × 10^3, the “optical density at 492 nm” value (normal sera; normal serum SN 18, 1/100) was 119 OD × 10^3 and 87 OD × 10^3 and the “optical density at 492 nm” value (normal sera; normal serum SN 19, 1/100) was 480 OD × 10^3 and 496 OD × 10^3. The “sera with which the peptide reacts” value ([1]; cf Table 1) was “about 10%”, the “optical density at 492 nm” value ([1]; serum B 1, 1/100) was 172 OD × 10^3 and 173 OD × 10^3 and the “optical density at 492 nm” value ([1]; serum B 2, 1/100) was 364 OD × 10^3 and 345 OD × 10^3. The “optical density at 492 nm” value ([1]; serum B 3, 1/100) was 304 OD × 10^3 and 341 OD × 10^3, the “optical density at 492 nm” value ([1]; serum B 4, 1/100) was 405 OD × 10^3 and 346 OD × 10^3 and the “optical density at 492 nm” value ([1]; serum B 5, 1/100) was 360 OD × 10^3 and 281 OD × 10^3. For the same substance, the “optical density at 492 nm” value ([1]; serum B 6, 1/100) was 172 OD × 10^3 and 163 OD × 10^3, the “optical density at 492 nm” value ([1]; serum B 7, 1/100) was 418 OD × 10^3 and 457 OD × 10^3 and the “optical density at 492 nm” value ([1]; serum B 8, 1/100) was 271 OD × 10^3 and 259 OD × 10^3. For the same substance, the “optical density at 492 nm” value ([1]; serum B 9, 1/100) was 235 OD × 10^3 and 229 OD × 10^3, the “optical density at 492 nm” value ([1]; serum B 10, 1/100) was 108 OD × 10^3 and 98 OD × 10^3 and the “optical density at 492 nm” value ([1]; serum B 11, 1/100) was 164 OD × 10^3 and 184 OD × 10^3. The “optical density at 492 nm” value ([1]; serum B 12, 1/100) was 136 OD × 10^3 and 117 OD × 10^3, the “optical density at 492 nm” value ([1]; serum B 13, 1/100) was 140 OD × 10^3 and 99 OD × 10^3 and the “optical density at 492 nm” value ([1]; serum B 14, 1/100) was 130 OD × 10^3 and 125 OD × 10^3. For the same substance, the “optical density at 492 nm” value ([1]; serum B 15, 1/100) was 301 OD × 10^3 and 303 OD × 10^3, the “optical density at 492 nm” value ([1]; serum B 16, 1/100) was 117 OD × 10^3 and 125 OD × 10^3 and the “optical density at 492 nm” value ([1]; serum P 1, 1/100) was 375 OD × 10^3 and 420 OD × 10^3. For the same substance, the “optical density at 492 nm” value ([1]; serum P 2, 1/100) was 399 OD × 10^3 and 391 OD × 10^3, the “optical density at 492 nm” value ([1]; serum P 3, 1/100) was 223 OD × 10^3 and 215 OD × 10^3 and the “optical density at 492 nm” value ([1]; serum P 4, 1/100) was 309 OD × 10^3 and 307 OD × 10^3. For the same substance, the “optical density at 492 nm” value ([1]; serum P 5, 1/100) was 129 OD × 10^3 and 176 OD × 10^3, the “optical density at 492 nm” value ([1]; serum P 6, 1/100) was 87 OD × 10^3 and 100 OD × 10^3 and the “optical density at 492 nm” value ([1]; serum P 7, 1/100) was 496 OD × 10^3 and 478 OD × 10^3. The “optical density at 492 nm” value ([1]; serum P 8, 1/100) was 282 OD × 10^3 and 328 OD × 10^3, the “optical density at 492 nm” value ([1]; serum P 9, 1/100) was 159 OD × 10^3 and 158 OD × 10^3 and the “optical density at 492 nm” value ([1]; serum P 10, 1/100) was 218 OD × 10^3 and 216 OD × 10^3. The “optical density at 492 nm” value ([1]; serum P 11, 1/100) was 1191 OD × 10^3 and 1377 OD × 10^3, the “optical density at 492 nm” value ([1]; serum P 12, 1/100) was 1121 OD × 10^3 and 1231 OD × 10^3 and the “optical density at 492 nm” value ([1]; serum P 13, 1/100) was 113 OD × 10^3 and 116 OD × 10^3. The “optical density at 492 nm” value ([1]; serum P 14, 1/100) was 280 OD × 10^3 and 270 OD × 10^3, the “optical density at 492 nm” value ([1]; serum P 15, 1/100) was 2305 OD × 10^3 and 2335 OD × 10^3 and the “optical density at 492 nm” value ([1]; serum P 16, 1/100) was 938 OD × 10^3 and 964 OD × 10^3. For the same substance, the “optical density at 492 nm” value ([1]; serum P 17, 1/100) was 217 OD × 10^3 and 212 OD × 10^3, the “optical density at 492 nm” value ([1]; serum P 18, 1/100) was 1427 OD × 10^3 and 1327 OD × 10^3 and the “optical density at 492 nm” value ([1]; serum P 19, 1/100) was 84 OD × 10^3 and 89 OD × 10^3. For the same substance, the “optical density at 492 nm” value ([1]; serum P 20, 1/100) was 714 OD × 10^3 and 740 OD × 10^3.
For glutathione S-transferase, the “reactivity towards HCV-positive sera” value (HCV-positive sera) is given as “none of the sera tested reacts”.

Reference: US6235284A, “Synthetic polypeptides belonging to the hepatitis C virus (HCV) and which can be used especially for detecting the latter” (Bio Merieux, priority 1992, dated 2001)
